# Values quoted from earlier work as cited in patent US11149018B2, “Substituted N-arylethyl-2-aminoquinoline-4-carboxamides and use thereof” (Bayer Aktiengesellschaft, priority 2017, dated 2021).
# Tests used:
# [1] = system: occlusion of the cerebral artery; conditions: treatment with the FP antagonist after occlusion of the cerebral artery; cited from earlier work
# [2] = target: FP receptor (Homo sapiens (Human), UniProt P43088); conditions: least selective of the prostanoid receptors; cited from earlier work
# Chain of FP receptor (P43088 whole entry): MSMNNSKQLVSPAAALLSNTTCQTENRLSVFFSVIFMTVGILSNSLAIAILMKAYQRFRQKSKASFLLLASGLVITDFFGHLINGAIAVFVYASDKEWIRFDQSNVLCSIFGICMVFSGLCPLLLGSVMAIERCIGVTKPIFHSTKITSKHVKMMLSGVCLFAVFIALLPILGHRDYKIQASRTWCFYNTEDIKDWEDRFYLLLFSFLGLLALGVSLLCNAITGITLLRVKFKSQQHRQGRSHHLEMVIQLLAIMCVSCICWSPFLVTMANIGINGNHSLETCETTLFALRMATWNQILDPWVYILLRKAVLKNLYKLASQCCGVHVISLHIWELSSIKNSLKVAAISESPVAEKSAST
Compound,neuroprotective effect [1],binding affinity to the FP receptor [2]
O=C(O)CCC/C=C\C[C@@H]1[C@@H](/C=C/[C@H](O)C2Cc3ccccc3C2)[C@@H](F)C[C@@H]1O [AL-8810],significant neuroprotective effects,
"CCCCC[C@H](O)/C=C/[C@H]1C(=O)C[C@H](O)[C@@H]1C/C=C\CCCC(=O)O [PGD2, prostaglandin D2]",,nanomolar affinities
"CCCCC[C@H](O)/C=C/[C@H]1[C@H](O)CC(=O)[C@@H]1C/C=C\CCCC(=O)O [PGE2, prostaglandin E2]",,nanomolar affinities
